Results from patent US20130344026A1, “Dimeric Smac Mimetics” (priority 2009, published 2013).
Read-outs that look alike come from different tables or passages of the source.

System: PANC-1 cells
Experiment: cell viability assay in PANC-1 cells (compound alone, + 100 ng/ml TNFa, + 300 ng/ml TRAIL)
Assay type: cell-based
[1] = Homo sapiens, PANC-1, compound alone, Tables 15-18, read-out: IC50 (uM) in cell viability assay in PANC-1 cells: Cmpnd alone
[2] = with 100 ng/ml TNFa, Tables 15-18, read-out: IC50 (uM) in cell viability assay in PANC-1 cells: Cmpnd + 100 ng/ml TNFa
[3] = with 300 ng/ml TRAIL, Tables 15-18, read-out: IC50 (uM) in cell viability assay in PANC-1 cells: Cmpnd + 300 ng/ml TRAIL
[4] = Homo sapiens, PANC-1, compound alone, Tables 6-10, read-out: IC50 (μM) in cell viability assay in PANC-1 cells: Compound alone
[5] = with 100 ng/ml TNFa, Tables 6-10, read-out: IC50 (μM) in cell viability assay in PANC-1 cells: Compound + 100 ng/ml TNFa
[6] = with 300 ng/ml TRAIL, Tables 6-10, read-out: IC50 (μM) in cell viability assay in PANC-1 cells: Compound + 300 ng/ml TRAIL

| IC50 [4] | IC50 [5] | IC50 [6] | SMILES | IC50 [1] | IC50 [2] | IC50 [3] | IC50 (compound alone, Tables 6-10, read-out: IC50 (μM) in cell viability assay in PANC-1 cells: Compound alone) |
| --- | --- | --- | --- | --- | --- | --- | --- |
| – | – | – | CN[C@@H](C)C(=O)N[C@H](C(=O)N1CCC[C@H]1c1nc(C(=O)NCCCCCCCCNC(=O)c2nc([C@@H]3CCCN3C(=O)[C@@H](NC(=O)[C@H](C)NC)C(C)(C)C)oc2-c2c[nH]c3ccccc23)c(-c2c[nH]c3ccccc23)o1)C(C)(C)C [Compound P4-26] | > 1 µM | 0.0007 µM | 0.0007 µM | – |
| – | – | – | CN[C@@H](C)C(=O)N[C@H](C(=O)N1CCCC1C(=O)N[C@H](COCC#CC#CCOC[C@@H](NC(=O)[C@H](C)NC(=O)[C@H](NC(=O)[C@@H](C)NC)C1CCCCC1)C(C)C)C1CCCCC1)C(C)(C)C (stereo partly drawn) [Compound H-7] | > 1 µM | 0.0007 µM | 0.0007 µM | – |
| > 1 µM | 0.06 µM | 0.1 µM | CN[C@@H](C)C(=O)N[C@H](C(=O)N1C[C@@H](NC(=O)CC[C@@H](NC(=O)[C@H](NC(=O)[C@@H](C)NC)C(C)(C)C)C(=O)N[C@H]2CCCc3ccccc32)C[C@H]1C(=O)N[C@H](C)c1ccccc1)C(C)C [Compound 167] | – | – | – | – |
| > 1 µM | > 1 µM | > 1 µM | CN[C@@H](C)C(=O)Nc1nc(CC(=O)NCCCC[C@H](NC(=O)[C@H](C)NC)C(=O)N2CCC[C@H]2C(=O)N[C@@H]2CCCc3ccccc32)cs1 [Compound 189] | – | – | – | – |
| > 1 µM | 0.01 µM | 0.019 µM | CN[C@@H](C)C(=O)N[C@H](C(=O)N1C[C@@H](NC(=O)c2cccc(C(=O)N[C@H]3C[C@@H](C(=O)N[C@H](C)c4ccccc4)N(C(=O)[C@@H](NC(=O)[C@H](CO)NC)C(C)(C)C)C3)c2)C[C@H]1C(=O)N[C@@H]1CCCc2ccccc21)C(C)(C)C [Compound 173] | – | – | – | – |
| – | – | – | C#CC[C@H](NC(=O)[C@H](C)NC)C(=O)N1C[C@@H](NC(=O)c2cccc(C(=O)N[C@H]3C[C@@H](C(=O)N[C@@H]4CCCc5ccccc54)N(C(=O)[C@@H](NC(=O)[C@H](C)NC)C(C)(C)C)C3)c2)C[C@H]1C(=O)N[C@@H]1CCCc2ccccc21 [Compound H-5] | > 1 µM | 0.008 µM | 0.009 µM | – |
| > 1 µM | > 1 µM | > 1 µM | CN[C@@H](C)C(=O)Nc1nc(CC(=O)NCCc2cn([C@H]3C[C@@H](C(=O)N[C@@H]4CCCc5ccccc54)N(C(=O)[C@@H](NC(=O)[C@H](C)NC)C(C)(C)C)C3)nn2)cs1 [Compound 195] | – | – | – | – |
| > 1 µM | 0.392 µM | 0.564 µM | CN[C@@H](C)C(=O)NC(C(=O)N[C@@H](CCNC(=O)CCc1cn([C@H]2C[C@@H](C(=O)N[C@@H]3CCCc4ccccc43)N(C(=O)[C@@H](NC(=O)[C@H](C)NC)C3CCCCC3)C2)nn1)C(=O)N[C@H](C)C(C)C)C(C)C (stereo partly drawn) [Compound 204] | – | – | – | – |
| – | – | – | CN[C@@H](C)C(=O)N[C@@H](CCCCNC(=O)c1cccc(C(=O)NCCCC[C@H](NC(=O)[C@H](C)NC)C(=O)N2CCC[C@H]2Cn2nnnc2Sc2ccccc2)c1)C(=O)N1CCC[C@H]1Cn1nnnc1Sc1ccccc1 [Compound P2-48] | > 1 µM | 0.263 µM | 0.398 µM | – |

| SMILES | IC50 [4] | IC50 [5] | IC50 [6] | IC50 [1] | IC50 [2] | IC50 [3] | IC50 (compound alone, Tables 6-10, read-out: IC50 (μM) in cell viability assay in PANC-1 cells: Compound alone) |
| --- | --- | --- | --- | --- | --- | --- | --- |
| CN[C@@H](C)C(=O)N[C@H](C(=O)N1C[C@@H](NC(=O)c2cccc(C(=O)N[C@H]3C[C@@H](C(=O)NC4CCCc5cccc(F)c54)N(C(=O)[C@@H](NC(=O)[C@H](C)NC)C(C)(C)C)C3)c2)C[C@H]1C(=O)NC1CCCc2cccc(F)c21)C(C)(C)C (single isomer, unassigned) [Compound 71] | – | 0.005 µM | 0.0091 µM | – | – | – | > 1 µM |
| CN[C@@H](C)C(=O)N[C@H](C(=O)N1C[C@@H](NC(=O)c2cc(C(=O)O)cc(C(=O)N[C@H]3C[C@@H](C(=O)N[C@@H]4CCCc5ccccc54)N(C(=O)[C@@H](NC(=O)[C@H](C)NC)C(C)(C)C)C3)c2)C[C@H]1C(=O)N[C@@H]1CCCc2ccccc21)C(C)(C)C [Compound 127] | > 1 µM | 0.032 µM | 0.028 µM | – | – | – | – |
| CN[C@@H](C)C(=O)N[C@H](C(=O)N1CCC[C@H]1C(=O)N[C@H]1c2ccccc2C[C@@H]1NC(=O)c1ccc(C(=O)N[C@H]2Cc3ccccc3[C@@H]2NC(=O)[C@@H]2CCCN2C(=O)[C@@H](NC(=O)[C@H](C)NC)C(C)(C)C)cc1)C(C)(C)C [Compound 124] | > 1 µM | 0.061 µM | 0.066 µM | – | – | – | – |
